Assay results from article PMC8285539, “Tetrasubstituted imidazoles as incognito Toll-like receptor 8 a(nta)gonists” (Nature Communications, 2021).

Molecular target: T1, TLR8 (Homo sapiens, UniProt Q9NR97)
T1 sequence (Q9NR97 27-827): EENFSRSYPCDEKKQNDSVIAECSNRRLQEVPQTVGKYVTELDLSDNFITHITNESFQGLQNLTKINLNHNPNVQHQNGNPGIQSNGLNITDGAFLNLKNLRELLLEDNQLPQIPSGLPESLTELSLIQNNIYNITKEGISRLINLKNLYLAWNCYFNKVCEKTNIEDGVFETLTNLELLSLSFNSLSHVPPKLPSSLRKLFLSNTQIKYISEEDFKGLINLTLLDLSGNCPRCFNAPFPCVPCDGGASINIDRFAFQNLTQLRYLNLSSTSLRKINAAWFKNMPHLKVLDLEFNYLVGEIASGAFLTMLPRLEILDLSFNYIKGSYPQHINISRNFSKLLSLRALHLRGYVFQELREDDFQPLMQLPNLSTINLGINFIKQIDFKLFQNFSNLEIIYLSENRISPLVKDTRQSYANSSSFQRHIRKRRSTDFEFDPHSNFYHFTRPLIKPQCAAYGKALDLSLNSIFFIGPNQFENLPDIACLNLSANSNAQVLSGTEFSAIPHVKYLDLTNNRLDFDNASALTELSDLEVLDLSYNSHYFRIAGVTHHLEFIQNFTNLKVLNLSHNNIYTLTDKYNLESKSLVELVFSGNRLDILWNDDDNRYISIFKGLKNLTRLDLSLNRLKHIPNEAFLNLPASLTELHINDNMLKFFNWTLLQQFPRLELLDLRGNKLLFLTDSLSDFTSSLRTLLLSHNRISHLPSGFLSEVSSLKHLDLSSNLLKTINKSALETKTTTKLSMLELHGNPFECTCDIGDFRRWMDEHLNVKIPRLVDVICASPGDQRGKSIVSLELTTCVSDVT
Test: ITC
Assay type: binding

- Kd: 12 µM
Compound: O=c1ccn([C@@H]2O[C@H](CO)[C@@H](O)[C@H]2O)c(=O)[nH]1 [uridine]
